Legend:
[1] = test system: Human Mobilized Peripheral Blood Primary CD34+ cells; experiment: Fetal hemoglobin (HbF) upregulation assay of CD34+ cells; type: cell-based
Experimental: Human Mobilized Peripheral Blood Primary CD34+ cells were expanded from thaw by seeding 100,000 viable cells/mL in a culture flask containing CD34+ Expansion Media comprised of StemSpan SFEMII (Stemcell Technologies #09655), 1% erythroid expansion supplement (Stemcell Technologies #02692), and 1 μM dexamethasone (Sigma #D2915). The cells were supplemented by adding an additional IX culture volume of CD34+ Expansion Media on Day 3 after thaw. After 7 days of expansion, Primary CD34+ cells were differentiated towards erythroid lineage by seeding at 15,000 viable cells/well in 96-well V-Bottom plates (Corning #3894) containing 135 μL CD34+ Differentiation Media comprised of StemSpan SFEMII (Stemcell Technologies #09655), 3% normal human serum (Sigma #H4522), 3 IU/mL erythropoietin (ThermFisher #PHC2054). Chemical probes for treatment were resuspended in 100 μL of Iscove's Modified Dulbecco's Medium (Stemcell Technologies #36150) to a 10× concentration, and 15 μL of 10× concentrated chemical probe was added to each well for a total well volume of 150 μL. Primary CD34+ cells were left to incubate at 37° C., 85% relative humidity, and 5% C02 for 3 days. On Day 3, assay plates containing Primary CD34+ cells were centrifuged at 500×g for 5 minutes. After centrifugation cells were pelleted to the bottom of the well, and 100 μL of media aspirated from the well without disturbing the cells. Then 90 μL of fresh CD34+ Differentiation Media and 10 μL of 10× concentrated chemical probes were added back each well. For the H3K27me3 assay, cells were harvested on Day 4 of treatment. The Primary CD34+ cells were centrifuged at 500×g for 5 minutes and all media was aspirated from the well. Then 150 μL of phosphate buffered saline (ThermoFisher #10010023) was added to each well to resuspend the cells. Finally, 50 μL of the Primary CD34+ cell suspension from each well was transferred to a poly-d-lysine coated 384-well plate (Corning Cat #356697) and centrifuged at 1000×g for 5 minutes before proceeding to ICC Fix and Stain Protocol. Assay plates for the HbF assay were returned to the incubator until Day 5, where the media was exchanged and chemical probes added exactly as on Day 3. On Day 7 of the HbF assay, the Primary CD34+ cells were harvested in the same manner as described for the H3K27me3 assay before proceeding to ICC Fix and Stain Protocol. […]
The plates were then scanned on the CX7 at 10× magnification, and 9 images were acquired per well. The software algorithm then identified nuclei and calculated a total nuclei count using the Hoechst staining on channel 1. After nuclei were identified, the algorithm calculated the average nuclear intensity of the H3K27me3 or HbF staining on channel 2. […]

HUDEP2 cells = experiment: Fetal hemoglobin (HbF) upregulation assay of HUDEP2 cells; type: cell-based
Experimental: HUDEP2 cells were maintained and passaged every 2-3 days by seeding 300,000 viable cells/mL in a culture flask containing HUDEP2 Growth Media comprised of StemSpan SFEM (Stemcell Technologies #09650), 50 ng/mL human stem cell factor (Stemcell Technologies #78062.2), 3 IU/mL erythropoietin (ThermoFisher #PHC2054), 1 μM dexamethasone (Sigma #D2915), and […] doxycycline (Sigma #D3072). HUDEP2 cells were differentiated towards erythroid lineage by seeding at 25,000 viable cells/well in 96-well V-Bottom plates (Corning #3894) containing 135 μL HUDEP2 Differentiation Media comprised of Iscove's Modified Dulbecco's Medium (Stemcell Technologies #36150), 1% L-glutamine (ThermoFisher #25030081), 2% penicillin-streptomycin (ThermoFisher #15140122), 330 μg/mL holo-human transferrin (Sigma #T0665), 2 IU/mL heparin (Stemcell Technologies #07980), 10 μg/mL recombinant human insulin (Sigma #91077C), 3 IU/mL erythropoietin (ThermoFisher #PHC2054), 100 ng/mL human stem cell factor (Stemcell Technologies #78062.2), and 4% fetal bovine serum (ThermoFisher #A3160502). Chemical probes for treatment were resuspended in 100 μL of Iscove's Modified Dulbecco's Medium (Stemcell Technologies #36150) to a 10× concentration, and 15 μL of 10× concentrated chemical probes were added to each well for a total well volume of 150 μL. HUDEP2 cells were left to incubate at 37° C., 85% relative humidity, and 5% CO2 for 3 days. On Day 3, assay plates containing HUDEP2 cells were centrifuged at 500×g for 5 minutes. After centrifugation cells were pelleted to the bottom of the well, and 100 μL of media aspirated from the well without disturbing the cells. Then 90 μL of fresh HUDEP2 Differentiation Media and 10 μL of 10× concentrated chemical probes were added back each well. For the H3K27me3 assay, cells were harvested on Day 4 of treatment. The HUDEP2 cells were centrifuged at 500×g for 5 minutes and all media was aspirated from the well. Then 150 μL of phosphate buffered saline (ThermoFisher #10010023) was added to each well to resuspend the cells. Finally, 50 μL of the HUDEP2 cell suspension from each well was transferred to a poly-d-lysine coated 384-well plate (Corning Cat #356697) and centrifuged at 1000×g for 5 minutes before proceeding to ICC Fix and Stain Protocol. Assay plates for the HbF assay were returned to the incubator until Day 5, where the media was exchanged and chemical probes added exactly as on Day 3. On Day 7 of the HbF assay, the HUDEP2 cells were harvested in the same manner as described for the H3K27me3 assay before proceeding to ICC Fix and Stain Protocol.
The Fix and Stain Protocol was the same for HEK293T, HUDEP2, and Primary CD34+ cell assays except the specific primary and secondary antibodies used for detection. Following 4 days of compound treatment, the respective plates were washed once with 25 μL of PBS (ThermoFisher #10010023) and fixed with 25 μL of 4% paraformaldehyde (ThermoFisher #28908) for 10 minutes at room temperature. The plates were then washed three times with 25 μL of PBS. Subsequent to that, the cells were permeabilized and blocked for 1 hour at room temperature in 25 μL of Perm/Block buffer comprised of IX PBS, 1% bovine serum albumin (ThermoFisher #A3294), 10% fetal bovine serum (ThermoFisher #A3160502), 0.3M glycine (Sigma #G7126), and 0.1% tween-20 (Sigma #P7949). This was followed by additional washing (three times) of the plates with 25 μL of 0.1% tween in PBS.
Plates for the HbF assay were treated similarly as described above except that HbF Primary Antibody (ThermoFisher #MHFH01-4) diluted 1:40 in 0.1% tween-20 in PBS and Hoescht (ThermoFisher #H3570) diluted 1:2000 in 0.1% tween-20 in PBS were used for detection.
The plates were then scanned on the CX7 at 10× magnification, and 9 images were acquired per well. The software algorithm then identified nuclei and calculated a total nuclei count using the Hoechst staining on channel 1. […]

| SMILES | EC50 [1] | EC50 (HUDEP2 cells) |
| --- | --- | --- |
| Cn1nc(C(F)(F)F)cc1-c1cc2c(n3cnnc13)NCc1c(F)ccc3c1[C@H](CO3)CO2 [Example 115] | 0.05 to 0.1 µM | < 0.025 µM |
| CS(=O)(=O)c1ccc(-c2cc3c(n4cnnc24)NCc2c(F)ccc4c2C(CO4)CO3)cc1 (stereo not shown) [Example 36] |  | 0.05 to 0.1 µM |
| Cc1cn(-c2cc3c(n4cnnc24)NCc2c(F)ccc4c2[C@@H](CO4)CO3)cn1 [Compound 15, (S)-12-fluoro-4-(4-methyl-1H-imidazol-1-yl)-7a,8,13,14-tetrahydro-7H-[1,2,4]triazolo[4′,3′:1,6]pyrido[3,2-b]benzofuro[4,3-fg][1,4]oxazonine] | 0.1 to 0.5 µM |  |
| Cc1cc(C#N)ccc1-c1cc2c(n3cnnc13)NCc1c(F)ccc3c1[C@H](CO3)CO2 [Example 49] |  | 0.05 to 0.1 µM |
| Cn1nccc1-c1cc2c(n3cnnc13)NCc1c(F)ccc3c1C(CO3)CO2 (stereo not shown) [Example 17] | < 0.025 µM | < 0.025 µM |

Now from value to compound:

| EC50 [1] | EC50 (HUDEP2 cells) | SMILES |
| --- | --- | --- |
| < 0.025 µM |  | Fc1cncnc1-c1cc2c(n3cnnc13)NCc1c(F)ccc3c1[C@@H](CO3)CO2 [Compound 164, (S)-12-fluoro-4-(5-fluoropyrimidin-4-yl)-7a,8,13,14-tetrahydro-7H-[1,2,4]triazolo[4′,3′:1,6]pyrido[3,2-b]benzofuro[4,3-fg][1,4]oxazonine] |
|  | 0.1 to 0.5 µM | COc1ncc(-c2cc3c(n4cnnc24)NCc2c(F)ccc4c2[C@H](CO4)CO3)cn1 [Example 30] |
|  | 0.05 to 0.1 µM | Cc1ncc(-c2cc3c(n4cnnc24)NCc2c(F)ccc4c2[C@@H](CO4)CO3)c(C)n1 [Compound 13, (S)-4-(2,4-dimethylpyrimidin-5-yl)-12-fluoro-7a,8,13,14-tetrahydro-7H-[1,2,4]triazolo[4′,3′:1,6]pyrido[3,2-b]benzofuro[4,3-fg][1,4]oxazonine] |
